# According to PubChem BioAssay AID248 (DTP/NCI, 2004):
# “And” between values parts separate entries of the source, which are not always exact repeats. Equal values may be shown once. Inconclusive results and toxic doses are left out.
# Test system: L1210 leukemia ip in BDF1 mice, survival T/C
# Experiment: NCI In Vivo Anticancer Drug Screen. Data for tumor model L1210 Leukemia (intraperitoneal) in B6D2F1 (BDF1) mice
# Conditions: higher = longer survival
# In short: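 Transplanted-tumor mice were given test agent; controls received vehicle only. Survival readings from the two groups were divided (treated over control).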
# [1] = endpoint: mean survival time, dose: 100.0 mg/kg/injection, schedule: Q04DX003 (ip), vehicle: saline
# [2] = endpoint: mean survival time, dose: 400.0 mg/kg/injection, schedule: Q04DX003 (ip), vehicle: saline
# [3] = endpoint: mean survival time, dose: 100.0 mg/kg/injection, schedule: Q01DX009 (ip), vehicle: saline with Tween-80
# [4] = endpoint: mean survival time, dose: 200.0 mg/kg/injection, schedule: Q01DX009 (ip), vehicle: saline with Tween-80
# [5] = endpoint: mean survival time, dose: 400.0 mg/kg/injection, schedule: Q01DX009 (ip), vehicle: saline with Tween-80
compound,measurement,setting,value
COc1cc2cc3c4cc(OC)c(OC)cc4cc[n+]3c(C)c2cc1OC,T/C,"endpoint: mean survival time, dose: 12.0 mg/kg/injection, schedule: Q01DX009 (ip), vehicle: saline",100 % of control
same,T/C,"endpoint: mean survival time, dose: 12.5 mg/kg/injection, schedule: Q01DX009 (ip), vehicle: water",117 % of control
same,T/C,"endpoint: mean survival time, dose: 16.0 mg/kg/injection, schedule: Q03HX008 (ip), vehicle: saline",122 % of control
same,T/C,"endpoint: mean survival time, dose: 16.0 mg/kg/injection, schedule: Q03HX016 (ip), vehicle: saline",122 % of control
same,T/C,"endpoint: mean survival time, dose: 25.0 mg/kg/injection, schedule: Q01DX009 (ip), vehicle: saline",117 % of control
same,T/C,"endpoint: mean survival time, dose: 32.0 mg/kg/injection, schedule: Q03HX008 (ip), vehicle: saline",118 % of control
same,T/C,"endpoint: mean survival time, dose: 32.0 mg/kg/injection, schedule: Q03HX024 (ip), vehicle: saline",124 % of control
same,T/C,"endpoint: mean survival time, dose: 50.0 mg/kg/injection, schedule: Q01DX009 (ip), vehicle: saline sonified",115 % of control
same,T/C,"endpoint: mean survival time, dose: 50.0 mg/kg/injection, schedule: Q04DX002 (ip), vehicle: saline",120 % of control
same,T/C,"endpoint: mean survival time, dose: 50.0 mg/kg/injection, schedule: Q04DX003 (ip), vehicle: saline",116 % of control
same,T/C,"endpoint: mean survival time, dose: 64.0 mg/kg/injection, schedule: Q03HX008 (ip), vehicle: saline",122 % of control
same,T/C,"endpoint: mean survival time, dose: 100.0 mg/kg/injection, schedule: Q01DX009 (ip), vehicle: saline sonified",115 % of control
same,T/C,"endpoint: mean survival time, dose: 100.0 mg/kg/injection, schedule: Q01DX009 (ip), vehicle: saline",110 % of control and 119 % of control
same,T/C,"endpoint: mean survival time, dose: 100.0 mg/kg/injection, schedule: Q04DX002 (ip), vehicle: saline",123 % of control
same,T/C,[1],108 % of control
same,T/C,"endpoint: mean survival time, dose: 128.0 mg/kg/injection, schedule: Q01DX001 (ip), vehicle: saline",117 % of control
same,T/C,"endpoint: mean survival time, dose: 128.0 mg/kg/injection, schedule: Q01DX009 (ip), vehicle: saline",120 % of control
same,T/C,"endpoint: mean survival time, dose: 128.0 mg/kg/injection, schedule: Q03HX008 (ip), vehicle: saline",124 % of control
same,T/C,"endpoint: mean survival time, dose: 128.0 mg/kg/injection, schedule: Q04DX003 (ip), vehicle: saline",114 % of control
same,T/C,"endpoint: mean survival time, dose: 128.0 mg/kg/injection, schedule: Q08DX002 (ip), vehicle: saline",122 % of control
same,T/C,"endpoint: mean survival time, dose: 200.0 mg/kg/injection, schedule: Q01DX009 (ip), vehicle: saline sonified",112 % of control
same,T/C,"endpoint: mean survival time, dose: 200.0 mg/kg/injection, schedule: Q04DX002 (ip), vehicle: saline",120 % of control
same,T/C,"endpoint: mean survival time, dose: 256.0 mg/kg/injection, schedule: Q01DX001 (ip), vehicle: saline",117 % of control
same,T/C,"endpoint: mean survival time, dose: 256.0 mg/kg/injection, schedule: Q08DX002 (ip), vehicle: saline",118 % of control
same,T/C,"endpoint: mean survival time, dose: 400.0 mg/kg/injection, schedule: Q01DX009 (ip), vehicle: water",151 % of control
same,T/C,"endpoint: mean survival time, dose: 400.0 mg/kg/injection, schedule: Q04DX002 (ip), vehicle: saline",116 % of control and 118 % of control
same,T/C,[2],120 % of control
same,T/C,"endpoint: mean survival time, dose: 512.0 mg/kg/injection, schedule: Q01DX001 (ip), vehicle: saline",119 % of control
same,T/C,"endpoint: mean survival time, dose: 512.0 mg/kg/injection, schedule: Q08DX002 (ip), vehicle: saline",120 % of control
same,T/C,"endpoint: mean survival time, dose: 1024.0 mg/kg/injection, schedule: Q04DX003 (ip), vehicle: saline",106 % of control
same,T/C,"endpoint: median survival time, dose: 16.0 mg/kg/injection, schedule: Q03HX008 (ip), vehicle: saline",122 % of control
same,T/C,"endpoint: median survival time, dose: 16.0 mg/kg/injection, schedule: Q03HX024 (ip), vehicle: saline",122 % of control
same,T/C,"endpoint: median survival time, dose: 32.0 mg/kg/injection, schedule: Q01DX009 (ip), vehicle: saline",122 % of control
same,T/C,"endpoint: median survival time, dose: 50.0 mg/kg/injection, schedule: Q01DX009 (ip), vehicle: saline",105 % of control and 109 % of control
same,T/C,"endpoint: median survival time, dose: 62.5 mg/kg/injection, schedule: Q01DX009 (ip), vehicle: saline",120 % of control
same,T/C,"endpoint: median survival time, dose: 64.0 mg/kg/injection, schedule: Q01DX001 (ip), vehicle: saline",122 % of control
same,T/C,"endpoint: median survival time, dose: 64.0 mg/kg/injection, schedule: Q01DX009 (ip), vehicle: saline",122 % of control
same,T/C,"endpoint: median survival time, dose: 64.0 mg/kg/injection, schedule: Q01DX009 (oral), vehicle: saline",100 % of control
same,T/C,"endpoint: median survival time, dose: 64.0 mg/kg/injection, schedule: Q01DX009 (sc), vehicle: saline",100 % of control
same,T/C,"endpoint: median survival time, dose: 64.0 mg/kg/injection, schedule: Q03HX008 (ip), vehicle: saline",122 % of control
same,T/C,"endpoint: median survival time, dose: 64.0 mg/kg/injection, schedule: Q04DX003 (ip), vehicle: saline",122 % of control
same,T/C,"endpoint: median survival time, dose: 64.0 mg/kg/injection, schedule: Q08DX002 (ip), vehicle: saline",111 % of control
same,T/C,"endpoint: median survival time, dose: 125.0 mg/kg/injection, schedule: Q01DX009 (ip), vehicle: saline",120 % of control
same,T/C,"endpoint: median survival time, dose: 128.0 mg/kg/injection, schedule: Q01DX001 (ip), vehicle: saline",122 % of control
same,T/C,"endpoint: median survival time, dose: 128.0 mg/kg/injection, schedule: Q01DX009 (ip), vehicle: saline",122 % of control
same,T/C,"endpoint: median survival time, dose: 128.0 mg/kg/injection, schedule: Q01DX009 (oral), vehicle: saline",105 % of control
same,T/C,"endpoint: median survival time, dose: 128.0 mg/kg/injection, schedule: Q01DX009 (sc), vehicle: saline",100 % of control
same,T/C,"endpoint: median survival time, dose: 128.0 mg/kg/injection, schedule: Q04DX003 (ip), vehicle: saline",122 % of control
same,T/C,"endpoint: median survival time, dose: 128.0 mg/kg/injection, schedule: Q08DX002 (ip), vehicle: saline",122 % of control
same,T/C,"endpoint: median survival time, dose: 256.0 mg/kg/injection, schedule: Q01DX009 (oral), vehicle: saline",111 % of control
same,T/C,"endpoint: median survival time, dose: 256.0 mg/kg/injection, schedule: Q01DX009 (sc), vehicle: saline",94 % of control
same,T/C,"endpoint: median survival time, dose: 256.0 mg/kg/injection, schedule: Q08DX002 (ip), vehicle: saline",122 % of control
same,T/C,"endpoint: median survival time, dose: 512.0 mg/kg/injection, schedule: Q01DX001 (ip), vehicle: saline",122 % of control
same,T/C,"endpoint: median survival time, dose: 512.0 mg/kg/injection, schedule: Q01DX009 (oral), vehicle: saline",100 % of control
same,T/C,"endpoint: median survival time, dose: 512.0 mg/kg/injection, schedule: Q01DX009 (sc), vehicle: saline",100 % of control
same,T/C,"endpoint: median survival time, dose: 512.0 mg/kg/injection, schedule: Q04DX003 (ip), vehicle: saline",122 % of control
same,T/C,"endpoint: median survival time, dose: 1024.0 mg/kg/injection, schedule: Q01DX009 (oral), vehicle: saline",88 % of control
same,T/C,"endpoint: median survival time, dose: 1024.0 mg/kg/injection, schedule: Q01DX009 (sc), vehicle: saline",100 % of control
same,T/C,"endpoint: median survival time, dose: 1024.0 mg/kg/injection, schedule: Q08DX002 (ip), vehicle: saline",122 % of control
same,T/C,"endpoint: median survival time, dose: 1600.0 mg/kg/injection, schedule: Q01DX009 (ip), vehicle: saline",90 % of control
COc1ccc(C(=O)C(=O)c2ccccc2Cl)cc1,T/C,"endpoint: mean survival time, dose: 100.0 mg/kg/injection, schedule: Q01DX005 (ip), vehicle: saline with Tween-80",104 % of control
same,T/C,[3],96 % of control
same,T/C,"endpoint: mean survival time, dose: 200.0 mg/kg/injection, schedule: Q01DX005 (ip), vehicle: saline with Tween-80",101 % of control
same,T/C,[4],107 % of control
same,T/C,"endpoint: mean survival time, dose: 400.0 mg/kg/injection, schedule: Q01DX005 (ip), vehicle: saline with Tween-80",101 % of control
same,T/C,[5],100 % of control
CC(=O)OC1CC2(O)C3CCC4CC(O)CCC4(C)C3CCC2(C)C1c1ccc(=O)oc1 (centres undefined),T/C,"endpoint: mean survival time, dose: 100.0 mg/kg/injection, schedule: Q01DX001 (sc), vehicle: steriod suspending solution",107 % of control
same,T/C,"endpoint: mean survival time, dose: 200.0 mg/kg/injection, schedule: Q01DX001 (sc), vehicle: steriod suspending solution",101 % of control
same,T/C,"endpoint: mean survival time, dose: 400.0 mg/kg/injection, schedule: Q01DX001 (sc), vehicle: steriod suspending solution",107 % of control
CSc1ccc(NC(=O)Nc2cccc(C)n2)cc1,T/C,"endpoint: mean survival time, dose: 100.0 mg/kg/injection, schedule: Q01DX009 (ip), vehicle: Klucel (hydroxypropylcellulose) (HPC)",98 % of control
same,T/C,"endpoint: mean survival time, dose: 100.0 mg/kg/injection, schedule: Q04DX003 (ip), vehicle: Klucel (hydroxypropylcellulose) (HPC)",95 % of control
same,T/C,"endpoint: mean survival time, dose: 200.0 mg/kg/injection, schedule: Q01DX009 (ip), vehicle: Klucel (hydroxypropylcellulose) (HPC)",108 % of control
same,T/C,"endpoint: mean survival time, dose: 200.0 mg/kg/injection, schedule: Q04DX003 (ip), vehicle: Klucel (hydroxypropylcellulose) (HPC)",93 % of control
same,T/C,"endpoint: mean survival time, dose: 400.0 mg/kg/injection, schedule: Q01DX009 (ip), vehicle: Klucel (hydroxypropylcellulose) (HPC)",97 % of control
same,T/C,"endpoint: mean survival time, dose: 400.0 mg/kg/injection, schedule: Q04DX003 (ip), vehicle: Klucel (hydroxypropylcellulose) (HPC)",97 % of control
COc1c2c(cc3c1N(C)C(=O)CC3C)C(C)CC(=O)N2 (centres undefined),T/C,"endpoint: mean survival time, dose: 75.0 mg/kg/injection, schedule: Q04DX003 (ip), vehicle: Klucel (hydroxypropylcellulose) (HPC)",98 % of control
O=C1NC2CC=CCC12 (centres undefined),T/C,[3],91 % of control
same,T/C,[1],101 % of control
same,T/C,[4],89 % of control
same,T/C,"endpoint: mean survival time, dose: 200.0 mg/kg/injection, schedule: Q04DX003 (ip), vehicle: saline",101 % of control
same,T/C,[5],89 % of control
same,T/C,[2],94 % of control
O=C(O)c1nsnc1C(=O)O,T/C,"endpoint: mean survival time, dose: 200.0 mg/kg/injection, schedule: Q01DX001 (ip), vehicle: saline",102 % of control
same,T/C,"endpoint: mean survival time, dose: 400.0 mg/kg/injection, schedule: Q01DX001 (ip), vehicle: saline",103 % of control
